Literature values as cited in paper PMC11946513, “Modulation of the substrate preference of a MYST acetyltransferase by a scaffold protein” (The Journal of Biological Chemistry, 2025).

Molecular target: KAT6A MYST domain
Conditions: binding to the KAT6A MYST domain; acetyl-CoA competitive; read-out: inhibition constant (Ki)
Method: The active enzyme concentration for each form of KAT6A was obtained through tight-binding inhibition ([48]) by PF-9363, which binds to the KAT6A MYST domain with an inhibition constant (Ki) of ≈0.3 nM ([6]).

Ki: ~0.3 nM
Structure (SMILES): COc1cccc(OC)c1S(=O)(=O)Nc1noc2cc(Cn3cccn3)cc(OC)c12 [PF-9363]
